Data from patent US11491150B2, “Organic compounds” (INTRA-CELLULAR THERAPIES, INC., priority 2017, dated 2022).
Where two headings read alike, the source gives them in different places.

What was measured:
mouse model of diabetes = assay: Nephropathy in streptozotocin mouse model of diabetes (eNOS-/- mice), α7-nAchR blocker; type: in vivo; conditions: blocker 2 mg/kg i.p. 5 days a week, 10 weeks; for Systolic BP: tail-cuff
Procedure: Normal mice express the α7-nAChR in both the proximal and distal tubule of the kidneys. Tests were conducted to determine the role of the α7-nAchR on the severity of nephropathy in a mouse model of diabetes. Diabetes mellitus (DM) was induced in all mice with streptozotocin (STZ). This test closely mimics diabetic […] in humans. Mice were either given nicotine (DN) in doses of […] in drinking water or tap water with no nicotine for a period of 10 weeks (DT). Targeted disruption of the endothelial nitric oxide synthase gene led to eNOS^-/- knockout in a group of mice to increase susceptibility of STZ in the mice. One group of eNOS^-/- knockout mice was also subjected to targeted disruption of the α7-nAchR gene, which led to eNOS^-/-/α7-nAchR^-/- double knockout mice (DN^-/- and DT^-/-). A separate group of eNOS^-/- mice also received a α7-nAchR blocker (DN+B and DT+B). The blocker used was Compound 17 at a dosage of 2 mg/kg given intraperitoneally for 5 days a week for a period of 10 weeks. Blood pressure was measured by tail-cuff method and urine was collected every 2 weeks for albuminuria.
All mice became diabetic after being administered STZ, and all mice were also hypertensive.

neuronal α4β2 nAChR = neuronal α4β2 nAChR (Homo sapiens, UniProt P17787+P43681); assay: Binding at 10 μM to neuronal α4β2 nAChR (selectivity test)
Chain of neuronal α4β2 nAChR (P43681 29-627 limits assumed): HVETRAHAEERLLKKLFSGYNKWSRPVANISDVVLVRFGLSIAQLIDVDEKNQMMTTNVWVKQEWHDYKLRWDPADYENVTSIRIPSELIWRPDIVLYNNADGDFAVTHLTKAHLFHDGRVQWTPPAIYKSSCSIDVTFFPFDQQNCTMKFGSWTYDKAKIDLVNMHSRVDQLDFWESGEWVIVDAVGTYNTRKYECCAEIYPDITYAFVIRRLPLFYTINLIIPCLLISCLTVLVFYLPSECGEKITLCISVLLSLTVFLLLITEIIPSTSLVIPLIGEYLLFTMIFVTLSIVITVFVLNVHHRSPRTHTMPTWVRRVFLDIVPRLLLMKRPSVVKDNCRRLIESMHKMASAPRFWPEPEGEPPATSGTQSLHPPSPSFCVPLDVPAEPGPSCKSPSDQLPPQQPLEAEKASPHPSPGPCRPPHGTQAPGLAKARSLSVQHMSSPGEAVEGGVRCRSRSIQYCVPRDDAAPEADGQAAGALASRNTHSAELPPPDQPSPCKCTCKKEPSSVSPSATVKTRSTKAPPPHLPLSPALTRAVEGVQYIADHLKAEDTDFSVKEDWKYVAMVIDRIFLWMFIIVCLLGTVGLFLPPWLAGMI
Chain of neuronal α4β2 nAChR (P17787 26-502): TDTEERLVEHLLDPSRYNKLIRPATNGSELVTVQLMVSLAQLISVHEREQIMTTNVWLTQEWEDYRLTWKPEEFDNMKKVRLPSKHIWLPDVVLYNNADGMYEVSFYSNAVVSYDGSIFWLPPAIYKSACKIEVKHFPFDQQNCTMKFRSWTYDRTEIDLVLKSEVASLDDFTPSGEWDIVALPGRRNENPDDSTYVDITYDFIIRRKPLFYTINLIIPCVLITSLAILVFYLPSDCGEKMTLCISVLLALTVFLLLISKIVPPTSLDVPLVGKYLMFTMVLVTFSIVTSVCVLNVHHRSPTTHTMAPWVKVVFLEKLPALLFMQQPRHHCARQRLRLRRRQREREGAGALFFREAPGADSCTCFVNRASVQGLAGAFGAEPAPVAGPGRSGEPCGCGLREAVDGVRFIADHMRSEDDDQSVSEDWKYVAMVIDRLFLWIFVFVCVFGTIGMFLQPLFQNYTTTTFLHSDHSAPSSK
Procedure: (§1) The selectivity of these compounds is measured on the neuronal α4β2 and the muscle-type nAChRs using methods known in the art.

α7 nAChR = α7 nAChR (Homo sapiens, UniProt P36544); assay: Binding at 10 μM to α7 nAChR (selectivity test)
Chain of α7 nAChR (P36544 23-502): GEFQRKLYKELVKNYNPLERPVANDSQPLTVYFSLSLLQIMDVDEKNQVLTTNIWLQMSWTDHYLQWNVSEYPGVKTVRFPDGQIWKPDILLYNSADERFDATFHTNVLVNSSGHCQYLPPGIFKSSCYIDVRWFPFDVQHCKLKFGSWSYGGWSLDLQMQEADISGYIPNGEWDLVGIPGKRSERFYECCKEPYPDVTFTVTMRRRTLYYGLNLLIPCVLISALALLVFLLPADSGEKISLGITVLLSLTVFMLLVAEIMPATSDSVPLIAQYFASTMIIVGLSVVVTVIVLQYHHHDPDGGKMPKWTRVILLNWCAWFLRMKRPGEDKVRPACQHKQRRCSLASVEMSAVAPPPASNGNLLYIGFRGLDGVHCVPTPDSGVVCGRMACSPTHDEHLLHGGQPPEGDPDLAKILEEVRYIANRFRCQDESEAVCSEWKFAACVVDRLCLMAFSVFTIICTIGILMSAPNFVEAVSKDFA

[1] = Pharmacokinetic study, brain penetrability after oral administration; type: in vivo; conditions: mouse, male C57B1/6 mice, oral 10 mg/kg, t=2 h
Procedure: The pharmacokinetic (PK) study of compounds are performed in male C57B1/6 mice (n=3 per time point) after an oral administration at 10 mg/kg to evaluate the brain penetrability. The concentrations of representative Compound 16 in brain and plasma are 0.15 μM and 0.2 μM at time t=2 h, respectively. The tmax of Compound Q is probably longer than 2 h.

muscle-type nAChRs = assay: Binding at 10 μM to muscle-type nAChRs (selectivity test)
Procedure: as §1

[2] = DN + B: diabetic eNOS-/- mice on nicotine
[3] = DT + B: diabetic eNOS-/- mice on tap water

| SMILES | Albuminuria (mouse model of diabetes; [2]) [ng/ml/24 hr] | Blood Glucose (mouse model of diabetes; [2]) [mg/dL] | Systolic BP (mouse model of diabetes; [2]) [mmHg] | Albuminuria (mouse model of diabetes; [3]) [ng/ml/24 hr] | Blood Glucose (mouse model of diabetes; [3]) [mg/dL] | Systolic BP (mouse model of diabetes; [3]) [mmHg] | binding to the neuronal α4β2 nAChR (neuronal α4β2 nAChR) | binding to the α7 receptor (α7 nAChR) [%] | concentration at 2 h ([1]; brain, read-out: concentration in brain) [nM] | concentration at 2 h ([1]; plasma, read-out: concentration in plasma) [nM] | binding to muscle-type nAChRs (muscle-type nAChRs) |
| --- | --- | --- | --- | --- | --- | --- | --- | --- | --- | --- | --- |
| NS(=O)(=O)c1ccc(Cn2ncc(C(=O)NCC3CCN(Cc4ccccc4)CC3)n2)cc1 [Compound 17] | 35 ± 6 | 441 ± 43 | 142 ± 13 | 50 ± 13 | 354 ± 51 | 150 ± 11 |  |  |  |  |  |
| CN(CC1CC[N+](C)(Cc2ccccc2)CC1)C(=O)c1cn(Cc2ccccc2Cl)nn1 (centres unmarked) [Compound 16] |  |  |  |  |  |  | no detectable binding | 92 | 150 | 200 | no detectable binding |
